Earlier results on 2 compounds are cited in patent publication US8445670B2, “Combinatorial library approach to iminocyclitols with biological activity” (United Therapeutics Corporation, priority 2005, dated 2013).

By IC50 is commonly meant the point on the concentration scale where inhibition reaches its midpoint.

Molecules are shown by their SMILES.

The series deals with bovine viral diarrhoea virus (BVDV). The note with it: reference DNJ derivatives, values given with literature references.

For the compound `CCCCN1C[C@H](O)[C@@H](O)[C@H](O)[C@H]1CO` [N-n-butyl DNJ], the IC50 was 125 µM. For `CCCCCCCCCN1C[C@H](O)[C@@H](O)[C@H](O)[C@H]1CO` [N-n-nonyl DNJ], the IC50 was 10 µM.
